Several values for one entry are separate records, joined by “and”; a condition that tells them apart may be missing. Equal entries are not always repeated. Inconclusive results and toxic doses are left out. Peptide text beside a SMILES is read from it. * marks the point of attachment. Cbz = O=C(OCc1ccccc1)*
Test system: P388 leukemia ip, CD2F1 mice, survival T/C
Test: NCI In Vivo Anticancer Drug Screen. Data for tumor model P388 Leukemia (intraperitoneal) in CD2F1 (CDF1) mice
Settings: endpoint: median survival time, higher = longer survival
Procedure, shortened: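 Mice carrying the transplanted tumor received test compound or vehicle. Survival was recorded in each group, and the value is the treated-group measurement divided by that of the vehicle-treated control group.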

[1] = dose: 50.0 mg/kg/injection, schedule: Q01DX009 (ip), vehicle: Klucel (hydroxypropylcellulose) (HPC)
[2] = dose: 100.0 mg/kg/injection, schedule: Q01DX009 (ip), vehicle: Klucel (hydroxypropylcellulose) (HPC)
[3] = dose: 200.0 mg/kg/injection, schedule: Q01DX009 (ip), vehicle: Klucel (hydroxypropylcellulose) (HPC)
[4] = dose: 50.0 mg/kg/injection, schedule: Q01DX005 (ip), vehicle: saline with Tween-80
[5] = dose: 100.0 mg/kg/injection, schedule: Q01DX005 (ip), vehicle: saline with Tween-80
[6] = dose: 200.0 mg/kg/injection, schedule: Q01DX005 (ip), vehicle: saline with Tween-80
[7] = dose: 50.0 mg/kg/injection, schedule: Q01DX005 (ip), vehicle: Klucel (hydroxypropylcellulose) (HPC)
[8] = dose: 100.0 mg/kg/injection, schedule: Q01DX005 (ip), vehicle: Klucel (hydroxypropylcellulose) (HPC)
[9] = dose: 200.0 mg/kg/injection, schedule: Q01DX005 (ip), vehicle: Klucel (hydroxypropylcellulose) (HPC)
[10] = dose: 100.0 mg/kg/injection, schedule: Q04DX002 (ip), vehicle: saline with Tween-80
[11] = dose: 60.0 mg/kg/injection, schedule: Q01DX005 (ip), vehicle: saline with Tween-80
[12] = dose: 120.0 mg/kg/injection, schedule: Q01DX005 (ip), vehicle: saline with Tween-80
[13] = dose: 240.0 mg/kg/injection, schedule: Q01DX005 (ip), vehicle: saline with Tween-80

COc1cccc(CN2CCN(N=O)CC2)c1
T/C (dose: 25.0 mg/kg/injection, schedule: Q01DX009 (ip), vehicle: Klucel (hydroxypropylcellulose) (HPC)): 105 % of control
T/C [1]: 97 % of control
T/C [2]: 95 % of control
T/C [3]: 105 % of control

Cc1cc(C(C)(C)C)c(O)c(C(C)(C)C)c1
T/C (dose: 100.0 mg/kg/injection, schedule: Q01DX009 (ip), vehicle: distilled water + Tween-80 + alcohol): 104 % of control
T/C (dose: 200.0 mg/kg/injection, schedule: Q01DX009 (ip), vehicle: distilled water + Tween-80 + alcohol): 102 % of control
T/C (dose: 400.0 mg/kg/injection, schedule: Q01DX009 (ip), vehicle: distilled water + Tween-80 + alcohol): 98 % of control

CCOc1ccc(N2CC(=O)N3CCCC(C)N3C(=O)C2)cc1 (configuration not stated)
T/C [4]: 101 % of control
T/C [5]: 101 % of control
T/C [6]: 103 % of control

C(=N\Nc1nnc(-c2ccccc2)c(-c2ccccc2)n1)/c1cccnc1
T/C (dose: 12.5 mg/kg/injection, schedule: Q01DX005 (ip), vehicle: saline with Tween-80): 86 % of control
T/C (dose: 25.0 mg/kg/injection, schedule: Q01DX005 (ip), vehicle: saline with Tween-80): 96 % of control
T/C [4]: 89 % of control
T/C [6]: 90 % of control

O=C(O)C(CO)NC(=O)C1CCCN1C(=O)OCc1ccccc1 (stereo not drawn) (Cbz-Pro-Ser-OH; configuration not given here)
T/C (dose: 50.0 mg/kg/injection, schedule: Q01DX005 (ip), vehicle: saline): 96 % of control
T/C (dose: 100.0 mg/kg/injection, schedule: Q01DX005 (ip), vehicle: saline): 93 % of control

CCCCC(=O)NN(Cn1c(=S)sc2ccccc21)Cn1c(=S)sc2ccccc21
T/C (dose: 1.56 mg/kg/injection, schedule: Q01DX009 (ip), vehicle: Klucel (hydroxypropylcellulose) (HPC)): 88 % of control
T/C (dose: 3.12 mg/kg/injection, schedule: Q01DX009 (ip), vehicle: Klucel (hydroxypropylcellulose) (HPC)): 106 % of control and 88 % of control
T/C (dose: 6.25 mg/kg/injection, schedule: Q01DX009 (ip), vehicle: Klucel (hydroxypropylcellulose) (HPC)): 100 % of control and 86 % of control and 93 % of control
T/C (dose: 12.5 mg/kg/injection, schedule: Q01DX009 (ip), vehicle: Klucel (hydroxypropylcellulose) (HPC)): 90 % of control and 97 % of control
T/C [1]: 88 % of control and 91 % of control

Cc1cc(O)c(C=Nc2ccccc2C)c(=O)o1
T/C [4]: 102 % of control
T/C [5]: 103 % of control
T/C [6]: 105 % of control

Cc1ccc(NC(=O)N(C)C)c(C)c1
T/C (dose: 60.0 mg/kg/injection, schedule: Q01DX005 (ip), vehicle: Klucel (hydroxypropylcellulose) (HPC)): 97 % of control
T/C (dose: 120.0 mg/kg/injection, schedule: Q01DX005 (ip), vehicle: Klucel (hydroxypropylcellulose) (HPC)): 97 % of control
T/C (dose: 240.0 mg/kg/injection, schedule: Q01DX005 (ip), vehicle: Klucel (hydroxypropylcellulose) (HPC)): 94 % of control

O=C1CSC(c2c(O)ccc3ccccc23)N1CCN1C(=O)CSC1c1c(O)ccc2ccccc12 (configuration not stated)
T/C (dose: 100.0 mg/kg/injection, schedule: Q01DX001 (ip), vehicle: saline with Tween-80): 97 % of control
T/C (dose: 200.0 mg/kg/injection, schedule: Q01DX001 (ip), vehicle: saline with Tween-80): 92 % of control
T/C (dose: 400.0 mg/kg/injection, schedule: Q01DX001 (ip), vehicle: saline with Tween-80): 90 % of control

CC(=O)OC1C(O)C(C)OC(OC(=O)C2CCC3C(C2)OC2(CC(OC(=O)/C=C/c4ccccc4)C(C)CO2)C32CO2)C1OC1OC(C)C(O)C(O)C1O (configuration not stated)
T/C (dose: 2.0 mg/kg/injection, schedule: Q01DX005 (ip), vehicle: saline + alcohol): 100 % of control and 118 % of control
T/C (dose: 4.0 mg/kg/injection, schedule: Q01DX005 (ip), vehicle: saline + alcohol): 119 % of control
T/C (dose: 16.0 mg/kg/injection, schedule: Q01DX005 (ip), vehicle: saline + alcohol): 151 % of control
T/C (dose: 32.0 mg/kg/injection, schedule: Q01DX005 (ip), vehicle: saline + alcohol): 154 % of control
T/C (dose: 64.0 mg/kg/injection, schedule: Q01DX005 (ip), vehicle: saline + alcohol): 163 % of control

CCc1ccc(C(=O)O)cc1S(=O)(=O)Cl
T/C (dose: 12.5 mg/kg/injection, schedule: Q01DX009 (ip), vehicle: saline sonified): 95 % of control
T/C (dose: 25.0 mg/kg/injection, schedule: Q01DX009 (ip), vehicle: saline sonified): 86 % of control
T/C (dose: 50.0 mg/kg/injection, schedule: Q01DX009 (ip), vehicle: saline sonified): 95 % of control

CCOC(=O)/C(N=Nc1ccccc1Cl)=C(\C)O
T/C [7]: 101 % of control
T/C [8]: 101 % of control
T/C [9]: 101 % of control

CC(=O)Oc1c2ccsc2cc2sccc12
T/C (dose: 12.5 mg/kg/injection, schedule: Q04DX003 (ip), vehicle: Klucel (hydroxypropylcellulose) (HPC)): 95 % of control
T/C (dose: 25.0 mg/kg/injection, schedule: Q04DX003 (ip), vehicle: Klucel (hydroxypropylcellulose) (HPC)): 94 % of control
T/C (dose: 50.0 mg/kg/injection, schedule: Q04DX003 (ip), vehicle: Klucel (hydroxypropylcellulose) (HPC)): 94 % of control
T/C (dose: 100.0 mg/kg/injection, schedule: Q04DX003 (ip), vehicle: Klucel (hydroxypropylcellulose) (HPC)): 100 % of control

NC(CCCCNC(=O)CCCCCCCCC(=O)NCCCCC(N)C(=O)O)C(=O)O (configuration not stated)
T/C (dose: 50.0 mg/kg/injection, schedule: Q01DX009 (ip), vehicle: suspension in saline): 95 % of control
T/C (dose: 100.0 mg/kg/injection, schedule: Q01DX009 (ip), vehicle: suspension in saline): 105 % of control
T/C (dose: 200.0 mg/kg/injection, schedule: Q01DX009 (ip), vehicle: suspension in saline): 100 % of control

C1OCN2CSCC12 (configuration not stated)
T/C [10]: 116 % of control

CCOC(=O)Cc1csc(=S)n1CC
T/C [4]: 98 % of control
T/C [5]: 98 % of control
T/C [6]: 98 % of control

CSC(SC)(C(=O)O)c1cc(C)no1
T/C [11]: 107 % of control
T/C [12]: 102 % of control
T/C [13]: 102 % of control

CCCCCN(CCCCC)CC(O)c1ccc(OC)c2ccccc12 (configuration not stated)
T/C [7]: 88 % of control
T/C [8]: 88 % of control

CC(SCCCCCCCCCCSC(C)C(=O)O)C(=O)O (configuration not stated)
T/C [7]: 93 % of control
T/C [8]: 98 % of control
T/C [9]: 95 % of control

Cc1ccc2cccc(OC(=O)Nc3ccc(Cl)c(Cl)c3)c2n1
T/C (dose: 12.5 mg/kg/injection, schedule: Q01DX009 (ip), vehicle: saline): 98 % of control
T/C (dose: 25.0 mg/kg/injection, schedule: Q01DX009 (ip), vehicle: saline): 103 % of control
T/C (dose: 50.0 mg/kg/injection, schedule: Q01DX009 (ip), vehicle: saline with Tween-80): 91 % of control
T/C (dose: 50.0 mg/kg/injection, schedule: Q01DX009 (ip), vehicle: saline): 103 % of control
T/C (dose: 100.0 mg/kg/injection, schedule: Q01DX009 (ip), vehicle: saline with Tween-80): 105 % of control

COC(=O)C1=NC(=N)N=C(C(=O)OC)C1(C)C(=O)c1ccc(Cl)cc1 (configuration not stated)
T/C [11]: 100 % of control and 104 % of control
T/C [12]: 98 % of control
T/C [13]: 99 % of control

O=[N+]([O-])c1ccc(/C=C/C=C/c2ccc(S(=O)(=O)F)cc2)c(Cl)c1
T/C [1]: 93 % of control
T/C [2]: 93 % of control
T/C [3]: 97 % of control

[Ni+2].[O-]c1ccccc1C=NCCCCCCN=Cc1ccccc1[O-]
T/C (dose: 50.0 mg/kg/injection, schedule: Q04DX002 (ip), vehicle: saline with Tween-80): 94 % of control
T/C [10]: 93 % of control
T/C (dose: 200.0 mg/kg/injection, schedule: Q04DX002 (ip), vehicle: saline with Tween-80): 93 % of control

CCOC(=Nc1ccc(OCC)cc1)SC(c1ccccc1)(c1ccccc1)c1ccccc1
T/C [4]: 104 % of control
T/C [5]: 98 % of control
T/C [6]: 91 % of control

CCN1CC2(OC(=O)c3ccccc3NC(C)=O)CCC(OC)C34C1C(CC23)C1(O)CC(OC)C2CC4C1(O)C2OC (configuration not stated)
T/C (dose: 4.0 mg/kg/injection, schedule: Q01DX009 (ip), vehicle: Klucel (hydroxypropylcellulose) (HPC)): 92 % of control
T/C (dose: 8.0 mg/kg/injection, schedule: Q01DX009 (ip), vehicle: Klucel (hydroxypropylcellulose) (HPC)): 94 % of control
T/C (dose: 16.0 mg/kg/injection, schedule: Q01DX009 (ip), vehicle: Klucel (hydroxypropylcellulose) (HPC)): 97 % of control
T/C (dose: 32.0 mg/kg/injection, schedule: Q01DX009 (ip), vehicle: Klucel (hydroxypropylcellulose) (HPC)): 91 % of control

CCC1C(OC)=CC(CC)(CO)C=C1OC (configuration not stated)
T/C [4]: 95 % of control
T/C [5]: 95 % of control
T/C [6]: 100 % of control

COc1cc2c(cc1OC)C(c1ccc([N+](=O)[O-])c(C)c1)=NCC2
T/C [7]: 100 % of control
T/C [8]: 100 % of control
T/C [9]: 96 % of control

CCOC(=O)C(CC)Oc1ccc(Cl)cc1 (configuration not stated)
T/C [1]: 102 % of control
T/C [2]: 89 % of control

CON1C(=O)OCC(c2ccccc2)(c2ccccc2)C1=O
T/C [4]: 99 % of control
T/C [5]: 104 % of control
T/C [6]: 91 % of control

Source: PubChem BioAssay AID330 (DTP/NCI, 2004)
